What all share (type): cell-based
Experiment [1] deals with T1, hGIPR (Homo sapiens, UniProt P48546).
T1 sequence (P48546 22-466): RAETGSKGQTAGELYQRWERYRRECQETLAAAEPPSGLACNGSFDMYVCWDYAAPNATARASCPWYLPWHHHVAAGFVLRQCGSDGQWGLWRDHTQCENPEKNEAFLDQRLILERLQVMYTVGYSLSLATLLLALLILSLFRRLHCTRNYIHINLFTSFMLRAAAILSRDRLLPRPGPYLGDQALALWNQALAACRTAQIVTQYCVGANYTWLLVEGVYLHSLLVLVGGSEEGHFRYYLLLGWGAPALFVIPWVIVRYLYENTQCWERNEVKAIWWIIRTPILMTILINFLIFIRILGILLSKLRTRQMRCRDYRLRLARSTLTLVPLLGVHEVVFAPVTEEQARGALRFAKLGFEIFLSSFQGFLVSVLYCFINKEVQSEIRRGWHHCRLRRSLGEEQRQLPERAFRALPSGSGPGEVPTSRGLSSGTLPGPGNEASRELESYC
Description: Functional cAMP activity in the presence of 1% HSA. The conditions noted are these: read-out: cAMP Rel EC50, hGIPR.

The next experiment concerns the target human GcgR (Homo sapiens, UniProt P47871). Description: Functional cAMP activity in the presence of 1% HSA. The conditions noted are these: read-out: cAMP Rel EC50, hGcgR.
The target in experiment [2] is T1, hGIPR. Description: Functional cAMP activation in the presence of 0.1% casein (no HSA). The conditions noted are these: read-out: Relative cAMP EC50, hGIPR.
The target in experiment [3] is T2, hGLP-1R (Homo sapiens, UniProt P43220). Description: Functional cAMP activity in the presence of 1% HSA. The following applies: read-out: cAMP Rel EC50, hGLP-1R.
T2 sequence (P43220 24-463): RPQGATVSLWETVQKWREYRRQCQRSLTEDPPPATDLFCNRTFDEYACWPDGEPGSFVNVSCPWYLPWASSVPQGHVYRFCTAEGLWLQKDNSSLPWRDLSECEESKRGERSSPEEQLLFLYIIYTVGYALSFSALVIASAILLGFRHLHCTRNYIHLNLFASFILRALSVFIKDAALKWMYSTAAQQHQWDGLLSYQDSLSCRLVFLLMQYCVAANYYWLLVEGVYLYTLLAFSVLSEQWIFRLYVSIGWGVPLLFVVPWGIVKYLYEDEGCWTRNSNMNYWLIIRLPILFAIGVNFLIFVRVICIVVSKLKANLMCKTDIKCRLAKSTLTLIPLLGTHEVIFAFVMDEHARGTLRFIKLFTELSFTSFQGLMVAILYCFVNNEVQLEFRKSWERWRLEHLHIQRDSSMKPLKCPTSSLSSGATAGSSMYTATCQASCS
The next experiment deals with hGcgR (Homo sapiens, UniProt P47871). As to the kind of experiment: Functional cAMP activation in the presence of 0.1% casein (no HSA). The conditions noted are these: read-out: Relative cAMP EC50, hGcgR.
Chain of hGcgR (P47871 26-477): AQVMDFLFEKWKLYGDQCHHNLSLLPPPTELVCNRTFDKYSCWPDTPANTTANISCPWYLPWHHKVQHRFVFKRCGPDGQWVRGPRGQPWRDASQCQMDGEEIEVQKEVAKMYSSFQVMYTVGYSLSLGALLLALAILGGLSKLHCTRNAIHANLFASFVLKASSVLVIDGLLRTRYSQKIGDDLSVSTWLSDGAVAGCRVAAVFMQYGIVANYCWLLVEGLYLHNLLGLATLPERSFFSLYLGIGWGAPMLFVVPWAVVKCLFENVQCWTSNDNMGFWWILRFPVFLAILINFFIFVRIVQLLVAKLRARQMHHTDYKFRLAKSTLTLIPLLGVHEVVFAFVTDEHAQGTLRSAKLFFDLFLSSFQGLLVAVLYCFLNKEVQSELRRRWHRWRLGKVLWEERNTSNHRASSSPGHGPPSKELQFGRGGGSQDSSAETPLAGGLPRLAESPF
Experiment [4] deals with T2, hGLP-1R. The description is as above. The following applies: read-out: Relative cAMP EC50, hGLP-1R.
Where [5] appears, read: HEK-293 clonal cell line, 1% HSA, geometric mean of relative EC50.
[6] abbreviates: in the presence of 0.1% casein (no HSA), geometric mean of relative EC50.

Read-outs that look alike come from different tables or passages of the source.
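Wherever Relative cAMP EC50, hGIPR is given: intracellular cAMP rise after 30 min at 37 °C read by HTRF against a standard curve, scaled between buffer alone (0%) and top control ligand concentration (100%), four-parameter fit.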
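Wherever Relative cAMP EC50, hGLP-1R is given: intracellular cAMP rise after 30 min at 37 °C read by HTRF, normalized between buffer only (0%) and maximal control ligand (100%), four-parameter variable-slope fit.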
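Wherever Relative cAMP EC50, hGcgR is given: intracellular cAMP rise after 30 min at 37 °C, read by HTRF against a cAMP standard curve, scaled from buffer only (0%) to maximal control ligand response (100%).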

Chain of human GcgR (P47871 26-477): as above

The term EC50 denotes the concentration at which the effect is half-maximal. With `CC[C@H](C)[C@H](NC(=O)[C@H](CC(C)C)NC(=O)[C@](C)(Cc1ccc(O)cc1)NC(=O)[C@@H](CCC(=O)O)NC(=O)[C@@H](NC(=O)[C@H](Cc1ccccc1)NC(=O)[C@H](CCC(=O)O)NC(=O)C(C)(C)NC(=O)[C@H](C)NC(=O)[C@H](C)NC(=O)[C@H](CCCCNC(=O)COCCOCCNC(=O)CC[C@H](NC(=O)CCCCCCCCCCCCCCCCC(=O)O)C(=O)O)NC(=O)[C@H](CCCN)NC(=O)[C@H](CC(=O)O)NC(=O)[C@H](CC(C)C)NC(=O)[C@](C)(CC(C)C)NC(=O)[C@@H](NC(=O)[C@](C)(CO)NC(=O)[C@H](Cc1ccncc1)NC(=O)[C@H](CC(=O)O)NC(=O)[C@H](CO)NC(=O)[C@@H](NC(=O)[C@](C)(Cc1ccccc1F)NC(=O)[C@@H](NC(=O)CNC(=O)[C@H](CCC(N)=O)NC(=O)C(C)(C)NC(=O)[C@@H](N)Cc1ccc(O)cc1)[C@@H](C)O)[C@@H](C)O)[C@@H](C)CC)[C@@H](C)CC)C(=O)N[C@@H](CCC(=O)O)C(=O)NCC(=O)NCC(=O)N1CCC[C@H]1C(=O)N[C@@H](CO)C(=O)N[C@@H](CO)C(=O)NCC(=O)N[C@@H](C)C(=O)N1CCC[C@H]1C(=O)N1CCC[C@H]1C(=O)N1CCC[C@H]1C(=O)N[C@@H](CO)C(=O)NCC(=O)N[C@H](C(=O)NCC(=O)N[C@@H](CCC(=O)O)C(N)=O)[C@@H](C)O` [Example 689], the concentration for a half-maximal effect (EC50) was 0.951 nM on hGIPR [1]; 182 nM on human GcgR; 0.0104 nM at hGIPR [2]; 25.1 nM at hGLP-1R [3]; 1.81 nM on hGcgR; 0.214 nM at hGLP-1R [4].

Turning to `CC[C@H](C)[C@H](NC(=O)[C@H](CC(C)C)NC(=O)[C@](C)(Cc1ccc(O)cc1)NC(=O)[C@@H](CCC(=O)O)NC(=O)[C@@H](NC(=O)[C@H](Cc1ccccc1)NC(=O)[C@H](CCC(=O)O)NC(=O)C(C)(C)NC(=O)[C@H](C)NC(=O)[C@H](C)NC(=O)[C@H](CCCCNC(=O)COCCOCCNC(=O)CC[C@H](NC(=O)CCCCCCCCCCCCCCCCC(=O)O)C(=O)O)NC(=O)[C@H](CCCN)NC(=O)[C@H](CC(=O)O)NC(=O)[C@H](CC(C)C)NC(=O)[C@](C)(CC(C)C)NC(=O)[C@@H](NC(=O)[C@](C)(CO)NC(=O)[C@H](Cc1ccncc1)NC(=O)[C@H](CC(=O)O)NC(=O)[C@H](CO)NC(=O)[C@@H](NC(=O)[C@](C)(Cc1ccccc1F)NC(=O)[C@@H](NC(=O)CNC(=O)[C@H](CCC(N)=O)NC(=O)C(C)(C)NC(=O)[C@@H](N)Cc1ccc(O)cc1)[C@@H](C)O)[C@@H](C)O)[C@@H](C)CC)[C@@H](C)CC)C(=O)N[C@@H](CCC(=O)O)C(=O)NCC(=O)NCC(=O)N1CCC[C@H]1C(=O)N[C@@H](CO)C(=O)N[C@@H](CO)C(=O)NCC(=O)N[C@@H](C)C(=O)N1CCC[C@H]1C(=O)N1CCC[C@H]1C(=O)N1CCC[C@H]1C(=O)N[C@@H](CO)C(=O)NCC(=O)N[C@@H](CO)C(=O)N[C@@H](CCC(=O)O)C(N)=O` [Example 702], the half-maximal effective concentration (EC50) was 1.25 nM at hGIPR [1]; 196 nM at human GcgR; 0.0116 nM at hGIPR [2]; 28.4 nM at hGLP-1R [3]; 1.5 nM on hGcgR; 0.243 nM on hGLP-1R [4].

For `CC[C@H](C)[C@H](NC(=O)[C@H](CC(C)C)NC(=O)[C@](C)(Cc1ccc(O)cc1)NC(=O)[C@@H](CCC(=O)O)NC(=O)[C@@H](NC(=O)[C@H](Cc1ccccc1)NC(=O)[C@H](CCC(=O)O)NC(=O)C(C)(C)NC(=O)[C@H](C)NC(=O)[C@H](C)NC(=O)[C@H](CCCCNC(=O)COCCOCCNC(=O)CC[C@H](NC(=O)CCCCCCCCCCCCCCCCC(=O)O)C(=O)O)NC(=O)[C@H](CCCN)NC(=O)[C@H](CC(=O)O)NC(=O)[C@H](CC(C)C)NC(=O)[C@](C)(CC(C)C)NC(=O)[C@@H](NC(=O)[C@](C)(CO)NC(=O)[C@H](Cc1ccncc1)NC(=O)[C@H](CC(=O)O)NC(=O)[C@H](CO)NC(=O)[C@@H](NC(=O)[C@](C)(Cc1ccccc1F)NC(=O)[C@@H](NC(=O)CNC(=O)[C@H](CCC(N)=O)NC(=O)C(C)(C)NC(=O)[C@@H](N)Cc1ccc(O)cc1)[C@@H](C)O)[C@@H](C)O)[C@@H](C)CC)[C@@H](C)CC)C(=O)N[C@@H](CCC(=O)O)C(=O)NCC(=O)NCC(=O)N1CCC[C@H]1C(=O)N[C@@H](CO)C(=O)N[C@@H](CO)C(=O)NCC(=O)N[C@@H](C)C(=O)N1CCC[C@H]1C(=O)N1CCC[C@H]1C(=O)N1CCC[C@H]1C(=O)N[C@@H](CO)C(=O)NCC(=O)N[C@@H](CO)C(=O)N[C@@H](CCC(=O)O)C(=O)N[C@@H](CCC(=O)O)C(N)=O` [Example 704], the EC50 at hGIPR [1] was 1.2 nM; at human GcgR it was 239 nM; at hGIPR [2], 0.013 nM; on hGLP-1R [3], 33.9 nM; on hGcgR it was 1.85 nM; at hGLP-1R [4], 0.287 nM.

As for `CC[C@H](C)[C@H](NC(=O)[C@H](CC(C)C)NC(=O)[C@](C)(Cc1ccc(O)cc1)NC(=O)[C@@H](CCC(=O)O)NC(=O)[C@@H](NC(=O)[C@H](Cc1ccccc1)NC(=O)[C@H](CCC(=O)O)NC(=O)C(C)(C)NC(=O)[C@H](C)NC(=O)[C@H](C)NC(=O)[C@H](CCCCNC(=O)COCCOCCNC(=O)CC[C@H](NC(=O)CCCCCCCCCCCCCCCCC(=O)O)C(=O)O)NC(=O)[C@H](CCCN)NC(=O)[C@H](CC(=O)O)NC(=O)[C@H](CC(C)C)NC(=O)[C@](C)(CC(C)C)NC(=O)[C@@H](NC(=O)[C@](C)(CO)NC(=O)[C@H](Cc1ccncc1)NC(=O)[C@H](CC(=O)O)NC(=O)[C@H](CO)NC(=O)[C@@H](NC(=O)[C@](C)(Cc1ccccc1F)NC(=O)[C@@H](NC(=O)CNC(=O)[C@H](CCC(N)=O)NC(=O)C(C)(C)NC(=O)[C@@H](N)Cc1ccc(O)cc1)[C@@H](C)O)[C@@H](C)O)[C@@H](C)CC)[C@@H](C)CC)C(=O)N[C@@H](CCC(=O)O)C(=O)NCC(=O)NCC(=O)N1CCC[C@H]1C(=O)N[C@@H](CO)C(=O)N[C@@H](CO)C(=O)NCC(=O)N[C@@H](CCC(=O)O)C(=O)N1CCC[C@H]1C(=O)N1CCC[C@H]1C(=O)N1CCC[C@H]1C(=O)N[C@@H](CO)C(=O)NCC(=O)N[C@@H](CO)C(N)=O` [Example 707], the concentration for a half-maximal effect (EC50) stood at 1.05 nM at hGIPR [1]; 199 nM on human GcgR; 0.0107 nM on hGIPR [2]; 30.6 nM at hGLP-1R [3]; 1.06 nM at hGcgR; 0.248 nM at hGLP-1R [4].

Take `CC[C@H](C)[C@H](NC(=O)[C@H](CC(C)C)NC(=O)[C@](C)(Cc1ccc(O)cc1)NC(=O)[C@@H](CCC(=O)O)NC(=O)[C@@H](NC(=O)[C@H](Cc1ccccc1)NC(=O)[C@H](CCC(=O)O)NC(=O)C(C)(C)NC(=O)[C@H](C)NC(=O)[C@H](C)NC(=O)[C@H](CCCCNC(=O)COCCOCCNC(=O)CC[C@H](NC(=O)CCCCCCCCCCCCCCCCC(=O)O)C(=O)O)NC(=O)[C@H](CCCN)NC(=O)[C@H](CC(=O)O)NC(=O)[C@H](CC(C)C)NC(=O)[C@](C)(CC(C)C)NC(=O)[C@@H](NC(=O)[C@](C)(CO)NC(=O)[C@H](Cc1ccncc1)NC(=O)[C@H](CC(=O)O)NC(=O)[C@H](CO)NC(=O)[C@@H](NC(=O)[C@](C)(Cc1ccccc1F)NC(=O)[C@@H](NC(=O)CNC(=O)[C@H](CCC(N)=O)NC(=O)C(C)(C)NC(=O)[C@@H](N)Cc1ccc(O)cc1)[C@@H](C)O)[C@@H](C)O)[C@@H](C)CC)[C@@H](C)CC)C(=O)N[C@@H](CCC(=O)O)C(=O)NCC(=O)NCC(=O)N1CCC[C@H]1C(=O)N[C@@H](CO)C(=O)N[C@@H](CO)C(=O)NCC(=O)N[C@@H](CCC(=O)O)C(=O)N1CCC[C@H]1C(=O)N1CCC[C@H]1C(=O)N1CCC[C@H]1C(=O)N[C@@H](CO)C(=O)NCC(=O)N[C@@H](CO)C(=O)N[C@H](CCC(=O)O)C(N)=O` [Example 720]: the half-maximal effective concentration (EC50) on hGIPR [1] (setting [5]) stood at 1.02 nM; at human GcgR (setting [5]) it was 239 nM; on hGIPR [2] (setting [6]) it was 0.0103 nM; on hGLP-1R [3] (setting [5]) it was 28.3 nM; on hGcgR (setting [6]), 1.78 nM; at hGLP-1R [4] (setting [6]), 0.245 nM.

These data come from patent US20240270821A1, “GIP/GLP1/GCG TRI-RECEPTOR AGONISTS AND USES THEREOF” (priority 2023, published 2024).
